Measured values as given in patent US9879006B2, “Azaindole acetic acid derivatives and their use as prostaglandin D2 receptor modulators” (IDORSIA PHARMACEUTICALS LTD, priority 2014, dated 2018).
pIC50: −log10 of the molar value.

Columns and labels:
hCRTH2 receptor [1] = target: T1, hCRTH2 receptor (Homo sapiens, UniProt Q9Y5Y4); assay: hCRTH2 receptor membranes radioligand displacement assay; details: displacement of 3H-PGD2 (2.5 nM), HEK293-hCRTH2 membrane fragments, Binding-Buffer with 0.1% BSA
T1 construct: expressed in transfected cells; host or cells: HEK293 (recombinant HEK293-hCRTH2), membrane fragments
T1 sequence (Q9Y5Y4 1-395): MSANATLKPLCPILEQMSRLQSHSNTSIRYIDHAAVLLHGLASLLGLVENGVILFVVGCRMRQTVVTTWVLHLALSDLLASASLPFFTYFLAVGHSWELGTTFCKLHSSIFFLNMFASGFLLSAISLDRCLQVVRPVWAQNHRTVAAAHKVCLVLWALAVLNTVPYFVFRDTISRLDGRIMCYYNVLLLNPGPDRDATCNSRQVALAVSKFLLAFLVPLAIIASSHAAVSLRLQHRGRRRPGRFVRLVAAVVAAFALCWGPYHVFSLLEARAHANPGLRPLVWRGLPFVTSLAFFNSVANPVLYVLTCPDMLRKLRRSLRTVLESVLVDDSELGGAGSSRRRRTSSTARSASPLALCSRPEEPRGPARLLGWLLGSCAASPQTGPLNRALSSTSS
Description: Preparation of hCRTH2 Receptor Membranes and Radioligand Displacement Assay:
(§1) First, recombinant HEK293-hCRTH2 cells were detached from culture plates into 5 ml buffer A/plate (Buffer A: 5 mM Tris, 1 mM MgCl2-6H2O pH=7.4) using a rubber policeman. Cells were then transferred into centrifugation tubes and centrifuged for 5 min at 400 g. The cell pellet was resuspended in the same buffer and tubes were frozen at 80° C. Cells were thawed and membrane fragments were generated by homogenization using a polytron homogenizer (30 seconds). The membrane fragments were then centrifuged at 3000 g for 20 minutes and resuspended in buffer C (Buffer C: 75 mM Tris, 25 mM MgCl2, 250 mM Saccharose pH 7.4). Aliquots of membrane fragments were stored at −20° C.
(§2) Binding assay was performed in a final assay volume of 250 μl. First, 25 μl of test compound, previously diluted in Binding-Buffer (Binding-Buffer: 50 mM Tris-Base, 100 mM NaCl, 1 mM EDTA, 0.1% BSA (protease free), 0.01% NaN3, 10 mM MnCl2 pH 7.0) was placed into each well. After addition of 75 μl Binding-Buffer, 50 μl of the radioligand ^3H-PGD2 (at 2.5 nM (220.000 dpm/well) from ANAWA ART0662) was added to each well. Binding assay was started by addition of 100 μl CRTH2 membrane fragments, reaching a final concentration of 20 μg/well. For non-specific binding, PGD2 was added to the reaction mixture to […] final concentration. This assay mix was incubated for 90 minutes at room temperature and then filtered through a GF/C filter 96-well plate which was pre-soaked for 3 hours in 0.5% polyethyleneimine (PEI). The filter-wells were washed three times with ice cold Binding-Buffer. Then, 40 μl of Microscint-40 (Packard) was added to each well and the retained radioactivity quantified in a Topcount (Packard).

hCRTH2 receptor [2] = target: T1, hCRTH2 receptor; assay: Radioligand displacement assay in presence of human serum albumin (HSA); details: displacement of 3H-PGD2, Binding-Buffer with 0.5% human serum albumin instead of 0.1% BSA
Description: as §1, §2
Radioligand Displacement Assay-Human Serum Albumin (HSA):
Radioligand displacement assay in presence of human serum albumin (HSA) was performed as described above, with following modifications. Binding-Buffer-HSA: Binding-buffer+0.5% Sigma Albumin from Human serum A1887 (instead of 0.1% BSA). A volume of 25 μl test compound, previously diluted in Binding-Buffer-HSA was placed into each well. After addition of 75 μl Binding-Buffer-HSA, 50 μl of ^3H-PGD2 (at 2.5 nM (220.000 dpm/well) from ANAWA ART0662) was added to each well. Remaining protocol was identical as described above.

[3] = tested on: eosinophils (PGD2-induced shape change); assay: Eosinophil shape change assay with human plasma; type: cell-based; details: human polymorphonuclear cells, 50% human plasma, activated with PGD2 100 nM, flow cytometry forward-scatter
Description: Eosinophil Shape Change Assay with Human Plasma
After obtaining informed consent, blood samples were drawn by venipuncture according to the protocol approved by the ethics committee of Basel, Switzerland. Polymorphonuclear leukocytes (containing eosinophils, basophils and neutrophils) were isolated using the Polymorphprep™ method (Axis-Shield). In brief, anticoagulated whole blood was layered onto a Polymorphprep gradient (density 1.113 g/ml) and centrifuged at 500 g for 30 min. The polymorphonuclear cell fraction was harvested and depleted for erythrocytes by hypotonic saline lysis.
The polymorphonuclear cells were resuspended in assay buffer (1×PBS with Ca^2+/Mg^2+ supplemented with 0.1% BSA, 10 mM HEPES, and 10 mM Glucose, pH 7.4) at 5×10^6 cells/ml and stained with anti-CD49d-APC ((APC=Allophycocyanin) for 1 hour at RT. Test compounds, at various concentrations, were preincubated 10 min in human plasma (anticoagulated with a thrombin inhibitor). Then, human plasma was added to the polymorphonuclear cells to 50% of final assay volume with polymorphonuclear cells at 4×10^6 cells/ml. After incubation for 10 minutes at 37° C., the polymorphonuclear cells were activated for 5 min at 37° C. by addition of PGD2 at 100 nM final concentration. Activation was stopped by addition of 0.5 ml paraformaldehyde (1%).
Immediately after fixation with paraformaldehyde, the samples were analyzed by FACSCanto flow cytometer (BD Biosciences) and target cells were identified by their forward-scatter (FSC) and side-scatter (SSC) characteristics. Eosinophils were identified by the anti-CD49d-APC signal and their characteristic side-scatter (SSC) profile. Shape change responses, indicative of eosinophil activation, were quantified as the percent of cells with an increased forward-scatter.

O=C(O)Cn1c2c(c3ncccc31)CC(Nc1ncc(Cl)cn1)CC2 (stereo not drawn) [Example 5, 2-(8-((5-chloropyrimidin-2-yl)-amino)-6,7,8,9-tetrahydro-5H-pyrido[3,2-b]indol-5-yl)acetic acid]
pIC50 (hCRTH2 receptor [1]): 7.72
pIC50 (hCRTH2 receptor [2]): 7.66
pIC50 [3]: 7.06
